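Each compound was tested at five concentrations against cells in 96-well plates for 48 hours. GI50: concentration for 50% inhibition of growth.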 Calls of active or inactive are those of the source. Cut-off read from the data, not from the text of the source: active = GI50 up to about 1.1 µM and inactive = higher. Non-standard residues stand in square brackets, D forms with d. Residues, ends and D or L forms follow the SMILES beside them. β3hI = CC[CH](C)[CH](N)CC(=O)O
Experiments:
Test in all cases: NCI anticancer screen, dose series, 48 h
EKVX = tested on: EKVX
Hs-578T = tested on: Hs-578T
Malme-3M = tested on: Malme-3M
HCC 2998 = tested on: HCC 2998
DU-145 = tested on: DU-145
U-251 = tested on: U-251
SF-295 = tested on: SF-295
HT-29 = tested on: HT-29
ACHN = tested on: ACHN
NCI-H23 = tested on: NCI-H23
SF-268 = tested on: SF-268
BT-549 = tested on: BT-549
SK-MEL-28 = tested on: SK-MEL-28
NCI-H460 = tested on: NCI-H460
MCF7 = tested on: MCF7
CAKI-1 = tested on: CAKI-1
TK-10 = tested on: TK-10
MDA-MB-435 = tested on: MDA-MB-435
UACC-62 = tested on: UACC-62
CCRF-CEM = tested on: CCRF-CEM

Measured: GI50

CCOC(=O)c1nc[nH]c1/N=N/N(C)N
inactive: EKVX > 100 µM | Hs-578T > 100 µM | Malme-3M > 100 µM | HCC 2998 > 100 µM | DU-145 > 100 µM | U-251 65 µM | SF-295 91.2 µM | HT-29 61.1 µM | ACHN > 100 µM | NCI-H23 > 100 µM | SF-268 > 100 µM | BT-549 > 100 µM | SK-MEL-28 > 100 µM | NCI-H460 25.3 µM | MCF7 98.4 µM | CAKI-1 15.4 µM | TK-10 > 100 µM | MDA-MB-435 > 100 µM | UACC-62 > 100 µM

CC(NC(=O)C(Cc1ccc(OC(=O)c2ccccc2)cc1)NC(=O)OC(C)(C)C)C(=O)NCC(=O)NC(Cc1ccccc1)C(=O)NN (centres undefined)
inactive: EKVX > 100 µM | Hs-578T 32.7 µM | Malme-3M 64.9 µM | DU-145 > 100 µM | U-251 51.5 µM | SF-295 46.9 µM | HT-29 31 µM | ACHN > 100 µM | NCI-H23 74.5 µM | SF-268 54.6 µM | BT-549 55.5 µM | SK-MEL-28 35.7 µM | NCI-H460 49.2 µM | MCF7 40.9 µM | CAKI-1 89.1 µM | TK-10 70.3 µM | MDA-MB-435 39 µM | UACC-62 40.6 µM

Cc1c(S(=O)(=O)N/C(=N\O)Nc2ccc(Cl)cc2)sc2ccc(Cl)cc12
inactive: EKVX 12.3 µM | Hs-578T 18.8 µM | Malme-3M 18.5 µM | DU-145 23.3 µM | U-251 16.1 µM | SF-295 17.6 µM | HT-29 19.3 µM | ACHN 15.2 µM | NCI-H23 18 µM | SF-268 18.1 µM | BT-549 17.4 µM | SK-MEL-28 16.4 µM | NCI-H460 24.8 µM | CAKI-1 17.5 µM | TK-10 16.9 µM | CCRF-CEM 38.4 µM | MDA-MB-435 16.3 µM | UACC-62 16.1 µM

CC(C)C1CN1CC(O)Cn1ccnc1[N+](=O)[O-] (centres undefined)
inactive: EKVX > 100 µM | Hs-578T > 100 µM | Malme-3M 62.2 µM | HCC 2998 > 100 µM | DU-145 > 100 µM | U-251 > 100 µM | SF-295 > 100 µM | HT-29 > 100 µM | ACHN > 100 µM | NCI-H23 > 100 µM | SF-268 > 100 µM | BT-549 > 100 µM | SK-MEL-28 > 100 µM | NCI-H460 > 100 µM | MCF7 > 100 µM | CAKI-1 > 100 µM | TK-10 > 100 µM | CCRF-CEM > 100 µM | UACC-62 > 100 µM

Oc1c(Br)cc(Br)cc1CN(Cc1cc(Br)cc(Br)c1O)C1CCCCC1
inactive: EKVX 30.5 µM | Hs-578T 17.2 µM | Malme-3M 21.2 µM | DU-145 38 µM | U-251 24.9 µM | SF-295 21.2 µM | HT-29 23.7 µM | ACHN 31.1 µM | NCI-H23 23.2 µM | SF-268 22 µM | BT-549 33.1 µM | SK-MEL-28 48.1 µM | MCF7 25.5 µM | CAKI-1 34.9 µM | TK-10 26.4 µM | MDA-MB-435 31.3 µM | UACC-62 31.3 µM

CCN1C(=S)n2cccc2C1CC(=O)c1ccc(Cl)cc1 (centres undefined)
inactive: EKVX 32.3 µM | Hs-578T > 100 µM | Malme-3M 57.3 µM | HCC 2998 73.8 µM | DU-145 > 100 µM | U-251 36 µM | SF-295 63.7 µM | HT-29 68.7 µM | ACHN > 100 µM | NCI-H23 13 µM | SF-268 63.1 µM | BT-549 64.9 µM | SK-MEL-28 54.1 µM | NCI-H460 34.7 µM | MCF7 24.8 µM | CAKI-1 > 100 µM | TK-10 95.9 µM | MDA-MB-435 56.1 µM | UACC-62 62.2 µM

CCC(C)C(CC(=O)N1CCCC1C(=O)NC(C(=O)NC(C(=O)NCC(=O)NC(CC(N)=O)C(=O)NC(C(=O)NC(C(=O)NC(CCCCN)C(N)=O)C(C)CC)C(C)CC)C(C)C)C(C)CC)NC(=O)C(N)C(C)CC (stereo not drawn) (H-I[β3hI]PIVGNIIK-NH2; configuration not given here)
inactive: EKVX > 50 µM | Hs-578T > 50 µM | Malme-3M > 50 µM | DU-145 > 50 µM | U-251 > 50 µM | SF-295 > 50 µM | HT-29 > 50 µM | ACHN > 50 µM | NCI-H23 > 50 µM | SF-268 > 50 µM | BT-549 > 50 µM | SK-MEL-28 > 50 µM | MCF7 > 50 µM | CAKI-1 > 50 µM | TK-10 > 50 µM | CCRF-CEM 10.5 µM | MDA-MB-435 > 50 µM | UACC-62 > 50 µM

Oc1cc(CF)nc(S)n1
inactive: EKVX > 100 µM | Hs-578T > 100 µM | Malme-3M > 100 µM | HCC 2998 > 100 µM | DU-145 > 100 µM | U-251 > 100 µM | SF-295 > 100 µM | HT-29 > 100 µM | ACHN > 100 µM | NCI-H23 > 100 µM | SF-268 > 100 µM | BT-549 > 100 µM | SK-MEL-28 > 100 µM | NCI-H460 > 100 µM | CAKI-1 > 100 µM | TK-10 > 100 µM | CCRF-CEM > 100 µM | MDA-MB-435 > 100 µM | UACC-62 > 100 µM

CCN(CCCN(CC)C(=O)Nc1c(C)cccc1C)C(=O)Nc1c(C)cccc1C
inactive: EKVX > 100 µM | Hs-578T > 100 µM | Malme-3M > 100 µM | HCC 2998 > 100 µM | DU-145 > 100 µM | U-251 > 100 µM | SF-295 > 100 µM | HT-29 > 100 µM | ACHN > 100 µM | NCI-H23 > 100 µM | SF-268 > 100 µM | BT-549 > 100 µM | SK-MEL-28 > 100 µM | NCI-H460 > 100 µM | MCF7 > 100 µM | CAKI-1 > 100 µM | TK-10 > 100 µM | MDA-MB-435 > 100 µM | UACC-62 > 100 µM

Clc1ccc(Cl)c(Nc2ccnc(SCc3ccccc3)n2)c1
inactive: EKVX 57.9 µM | Hs-578T > 100 µM | Malme-3M > 100 µM | DU-145 > 100 µM | U-251 > 100 µM | SF-295 > 100 µM | HT-29 69.8 µM | ACHN > 100 µM | NCI-H23 > 100 µM | SF-268 > 100 µM | BT-549 > 100 µM | SK-MEL-28 > 100 µM | NCI-H460 54.8 µM | MCF7 > 100 µM | CAKI-1 > 100 µM | TK-10 > 100 µM | CCRF-CEM > 100 µM | MDA-MB-435 > 100 µM | UACC-62 > 100 µM

CC(C)(C)OC(=O)N1CCCC1C(=O)NCCNc1ccc(NCCNC(=O)C2CCCN2C(=O)OC(C)(C)C)c2c1C(=O)c1ccccc1C2=O (centres undefined)
inactive: EKVX 27 µM | Hs-578T 18.7 µM | Malme-3M 15.1 µM | HCC 2998 13 µM | U-251 18.8 µM | SF-295 18 µM | HT-29 13.7 µM | ACHN 15.4 µM | NCI-H23 15.6 µM | SF-268 31.3 µM | BT-549 13 µM | SK-MEL-28 14.3 µM | MCF7 16.2 µM | CAKI-1 18.5 µM | TK-10 19.1 µM | CCRF-CEM > 100 µM | MDA-MB-435 14.1 µM | UACC-62 11.6 µM

O=[N+]([O-])c1cc(Cl)cc2cc(Cl)cnc12
inactive: EKVX 83.2 µM | Hs-578T 25.9 µM | Malme-3M > 100 µM | HCC 2998 > 100 µM | DU-145 > 100 µM | U-251 > 100 µM | SF-295 > 100 µM | HT-29 > 100 µM | ACHN > 100 µM | NCI-H23 > 100 µM | SF-268 > 100 µM | BT-549 > 100 µM | SK-MEL-28 > 100 µM | NCI-H460 > 100 µM | CAKI-1 > 100 µM | TK-10 > 100 µM | CCRF-CEM > 100 µM | MDA-MB-435 > 100 µM | UACC-62 53.2 µM

COc1ccc(NC(=S)N/N=C/c2c(C)n(C)n(-c3ccccc3)c2=O)cc1
inactive: EKVX 42.8 µM | Hs-578T 29.9 µM | HCC 2998 > 100 µM | U-251 20.4 µM | SF-295 37.9 µM | HT-29 69.5 µM | ACHN 34.7 µM | NCI-H23 31.5 µM | SF-268 27.9 µM | BT-549 43.7 µM | SK-MEL-28 64.1 µM | MCF7 42.7 µM | CAKI-1 22 µM | TK-10 53.3 µM | CCRF-CEM > 100 µM | MDA-MB-435 51.4 µM | UACC-62 51.1 µM

CCCSc1ccc2[nH]c(/N=C/c3ccco3)cc2c1
inactive: EKVX 3.77 µM | Hs-578T 29.1 µM | Malme-3M 67.9 µM | DU-145 63.5 µM | SF-295 > 100 µM | HT-29 14.3 µM | ACHN 49.5 µM | NCI-H23 33.8 µM | SF-268 52.6 µM | BT-549 31 µM | SK-MEL-28 41.8 µM | MCF7 6.34 µM | CAKI-1 34 µM | CCRF-CEM 27.6 µM | MDA-MB-435 17.8 µM | UACC-62 52.8 µM

COc1ccc(-c2nc(N)c3ncn(C4OC(CO)C(O)C4O)c3n2)cc1 (centres undefined)
inactive: EKVX > 100 µM | Hs-578T > 100 µM | Malme-3M > 100 µM | DU-145 > 100 µM | U-251 > 100 µM | SF-295 > 100 µM | HT-29 > 100 µM | ACHN > 100 µM | NCI-H23 > 100 µM | SF-268 > 100 µM | BT-549 > 100 µM | SK-MEL-28 > 100 µM | NCI-H460 > 100 µM | MCF7 > 100 µM | CAKI-1 > 100 µM | TK-10 > 100 µM | CCRF-CEM > 100 µM | MDA-MB-435 > 100 µM | UACC-62 > 100 µM
